Data taken from publication PMC4700268 (Frontiers in Pharmacology, 2016).
Values joined by “and” are separate entries in the source; they are usually repeats but may differ in a detail not shown here. Equal entries are not always repeated.

Legend:
hCNT2 = biological target: T1, hCNT2 (Homo sapiens, UniProt O43868); test: [3H]ETV uptake in hCNT2 transfected cells; settings: 5 min, 37°C
T1 sequence (O43868 1-658): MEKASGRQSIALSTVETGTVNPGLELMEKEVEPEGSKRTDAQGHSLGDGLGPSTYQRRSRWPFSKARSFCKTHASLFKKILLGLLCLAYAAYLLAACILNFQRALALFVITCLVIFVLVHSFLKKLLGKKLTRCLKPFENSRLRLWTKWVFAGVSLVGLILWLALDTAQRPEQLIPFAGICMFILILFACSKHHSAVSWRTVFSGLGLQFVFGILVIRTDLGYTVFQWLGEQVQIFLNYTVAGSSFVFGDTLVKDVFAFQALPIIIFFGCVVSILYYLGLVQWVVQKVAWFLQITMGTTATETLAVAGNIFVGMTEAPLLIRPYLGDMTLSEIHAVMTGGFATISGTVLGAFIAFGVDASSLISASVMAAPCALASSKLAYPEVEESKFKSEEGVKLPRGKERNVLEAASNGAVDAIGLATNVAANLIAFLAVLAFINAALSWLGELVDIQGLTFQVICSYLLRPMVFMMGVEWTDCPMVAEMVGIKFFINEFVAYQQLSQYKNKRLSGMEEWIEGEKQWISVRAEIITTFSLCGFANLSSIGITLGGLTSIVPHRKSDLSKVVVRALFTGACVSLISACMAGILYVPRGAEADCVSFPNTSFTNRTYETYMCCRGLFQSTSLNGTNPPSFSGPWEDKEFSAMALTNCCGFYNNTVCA

[1] = tested on: HeLa cells transiently transfected with hOAT1
Description: The Hela cells were plated in a 96-well plate and transfected with hOAT1 as described above. […] The controls were prepared simultaneously. After 24 h of incubation, the reagent from the kit CellTiter 96 AQueous One Solution Cell Proliferation Assay (CellTiter 96, PROMEGA, USA) was added. After 1.5 h of incubation at 37°C the absorbance was recorded at 490 nm.

hOAT1 [2] = biological target: T2, hOAT1 (Homo sapiens, UniProt Q4U2R8); test: Inhibition of [3H]PAH uptake in hOAT1 transfected HeLa cells; type: in vitro ADME; parameters: host or cells: HeLa cells, transient transfection; settings: 1 μM [3H]PAH, HeLa cells transiently transfected with hOAT1, 2 min, 37°C; read-out: IC50, inhibition of hOAT1 mediated transport
T2 sequence (Q4U2R8 1-563): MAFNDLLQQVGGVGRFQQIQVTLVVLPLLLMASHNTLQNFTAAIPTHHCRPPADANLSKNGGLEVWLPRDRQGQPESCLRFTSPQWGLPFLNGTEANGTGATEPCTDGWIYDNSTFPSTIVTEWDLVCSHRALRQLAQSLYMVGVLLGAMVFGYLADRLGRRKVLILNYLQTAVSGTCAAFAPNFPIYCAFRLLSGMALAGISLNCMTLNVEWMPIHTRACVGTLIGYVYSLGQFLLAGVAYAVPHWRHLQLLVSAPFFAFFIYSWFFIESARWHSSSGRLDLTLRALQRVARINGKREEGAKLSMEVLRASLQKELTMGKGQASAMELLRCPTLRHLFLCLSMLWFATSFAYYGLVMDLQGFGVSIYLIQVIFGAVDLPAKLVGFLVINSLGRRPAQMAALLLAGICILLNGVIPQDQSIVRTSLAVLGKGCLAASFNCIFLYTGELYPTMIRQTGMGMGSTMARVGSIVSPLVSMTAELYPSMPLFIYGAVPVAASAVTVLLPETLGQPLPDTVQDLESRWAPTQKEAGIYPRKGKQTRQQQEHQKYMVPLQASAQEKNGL
Description: (§1) Inhibitory transport assays were carried out in 24-well plates as described previously ([Mandikova et al., 2013]). Transport assays in HeLa cells transiently transfected with the hOAT1 expression construct were performed 48 h after transfection. Transport assays in MDCK II cells transiently transfected with hOCT2, hCNT2 or hCNT3 were performed 24 h after transfection. The cultivation medium was removed and the cells were washed with transport solution and preincubated for 10 min at 37°C. The standard radiolabeled substrate or tested radioactive antiviral substance dissolved in transport solution was added to the cells and incubated for 2 min. […] After the designated time period, the incubation was stopped by washing the cells twice with ice-cold solution containing 137 mM NaCl and 10 mM HEPES, pH 7.4. The cells were disintegrated with 0.1 mL of Triton X 0.5% in 100 mM NaOH for 1 h. […] IC50 values were calculated using non-linear regression analysis using GraphPad Prism software (version 6).

[3] = tested on: MDCK II cells transiently transfected with hCNT2; test: MTS cell viability assay in hCNT2 transfected MDCK II cells; type: cell-based, canine; settings: 24 h, 250–1000 μM, hCNT2 vs empty vector MDCK II cells
Description: (§2) The controls were prepared simultaneously.

hOAT1 [4] = biological target: T2, hOAT1; parameters: host or cells: HeLa cells, transient transfection; method as in Xu et al., 2013; settings: ref Xu et al., 2013; read-out: Km for hOAT1, previously published; cited from earlier work
[5] = Urinary excretion of ETV and estimated concentration in final urine; type: in vivo; settings: 1 mg dose, 24 h-urinary volume of 1 L
hOCT2 = biological target: T3, hOCT2 (Homo sapiens, UniProt O15244); test: Inhibition of [3H]MPP+ uptake in hOCT2 transfected MDCK II cells; type: in vitro ADME; settings: 1 μM [3H]MPP+, ETV 0–2000 μM, 2 min
T3 construct: host or cells: MDCK II cells, transient transfection
T3 sequence (O15244 1-555): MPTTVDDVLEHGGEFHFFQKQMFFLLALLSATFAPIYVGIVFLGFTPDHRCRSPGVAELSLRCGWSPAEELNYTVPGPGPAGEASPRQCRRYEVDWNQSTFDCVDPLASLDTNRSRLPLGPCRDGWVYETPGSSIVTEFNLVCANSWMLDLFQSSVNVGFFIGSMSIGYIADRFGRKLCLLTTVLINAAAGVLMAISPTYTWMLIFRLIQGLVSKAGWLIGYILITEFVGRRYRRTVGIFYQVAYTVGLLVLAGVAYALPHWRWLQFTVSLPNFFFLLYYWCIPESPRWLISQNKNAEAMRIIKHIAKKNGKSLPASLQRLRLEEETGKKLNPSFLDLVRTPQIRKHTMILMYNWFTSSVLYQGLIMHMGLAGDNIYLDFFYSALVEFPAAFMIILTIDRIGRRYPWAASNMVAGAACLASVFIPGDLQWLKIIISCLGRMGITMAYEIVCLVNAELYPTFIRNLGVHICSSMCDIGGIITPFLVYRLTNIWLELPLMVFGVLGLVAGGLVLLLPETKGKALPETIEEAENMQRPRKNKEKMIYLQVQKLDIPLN
Description: as §1

[6] = tested on: MDCK II cells transiently transfected with hCNT3; test: MTS cell viability assay in hCNT3 transfected MDCK II cells; type: cell-based, canine; settings: 24 h, 250–1000 μM, hCNT3 vs empty vector MDCK II cells
Description: as §2

- Vmax of [3H]ETV uptake by hCNT2 (hCNT2): 68.88 nmol/mg protein/5 min
- IC50 (hOAT1 [2]): 175 µM
- Estimated concentration in the final urine [5]: approximately 700 μg/L and ~2.5 μM
- Inhibitory interaction with hOCT2 (hOCT2): No interaction
Structure (SMILES): C=C1[C@H](CO)[C@@H](O)C[C@@H]1n1cnc2c(=O)[nH]c(N)nc21 [ETV, Entecavir]
- Effect of hOAT1 expression on cytotoxicity (cell viability) [1]: no significant effect on cell viability
- Effect of hCNT2 expression on cytotoxicity [3]: did not prove any significant increase in cytotoxicity
- Km (hOAT1 [4]): 250 µM
- Effect of hCNT3 expression on cytotoxicity [6]: did not prove any significant increase in cytotoxicity
